Values of other authors in patent US20170042143A1, “ANIONIC POLYVINYL ALCOHOL COPOLYMER AS PROTECTIVE COLLOID FOR PESTICIDAL POLYUREA MICROCAPSULES” (BASF SE, priority 2014, published 2017).

Conditions: at 20° C.

With `Cc1ccccc1CO[C@@H]1C[C@@]2(C(C)C)CC[C@]1(C)O2` (racemic) [Cinmethylin] as the compound, how does the solubility in water read?
Its solubility in water is “about 0.06 g/l”.
